Test results published in ChEMBL document CHEMBL5729519, “Methods and composition of 4-substituted benzoylpiperazine-1-substituted carbonyls as beta-catenin/B-cell lymphoma 9 inhibitors” (2023).

Target: beta-catenin-B-cell lymphoma 9 protein complex (Homo sapiens, UniProt P35222+O00512)
Experiment: Alphascreen Assay: Alphascreen Assays to Determine the Apparent Kd Values for Wild-Type and Mutant β-Catenin/BCL9 InteractionsThe experimental detail using AlphaScreen to determine the apparent Kd values for β-catenin/BCL9 and β-catenine/E-cadherin PPIs has been described previously (Zhang et al. (2015) Anal. Biochem. 469: 43-53). The concentrations of mutant β-catenin proteins used in the assays were the same as that of wild-type β-catenin.
Type: protein-complex assay

Sequence of beta-catenin-B-cell lymphoma 9 protein complex (O00512 whole entry, stated change not applied): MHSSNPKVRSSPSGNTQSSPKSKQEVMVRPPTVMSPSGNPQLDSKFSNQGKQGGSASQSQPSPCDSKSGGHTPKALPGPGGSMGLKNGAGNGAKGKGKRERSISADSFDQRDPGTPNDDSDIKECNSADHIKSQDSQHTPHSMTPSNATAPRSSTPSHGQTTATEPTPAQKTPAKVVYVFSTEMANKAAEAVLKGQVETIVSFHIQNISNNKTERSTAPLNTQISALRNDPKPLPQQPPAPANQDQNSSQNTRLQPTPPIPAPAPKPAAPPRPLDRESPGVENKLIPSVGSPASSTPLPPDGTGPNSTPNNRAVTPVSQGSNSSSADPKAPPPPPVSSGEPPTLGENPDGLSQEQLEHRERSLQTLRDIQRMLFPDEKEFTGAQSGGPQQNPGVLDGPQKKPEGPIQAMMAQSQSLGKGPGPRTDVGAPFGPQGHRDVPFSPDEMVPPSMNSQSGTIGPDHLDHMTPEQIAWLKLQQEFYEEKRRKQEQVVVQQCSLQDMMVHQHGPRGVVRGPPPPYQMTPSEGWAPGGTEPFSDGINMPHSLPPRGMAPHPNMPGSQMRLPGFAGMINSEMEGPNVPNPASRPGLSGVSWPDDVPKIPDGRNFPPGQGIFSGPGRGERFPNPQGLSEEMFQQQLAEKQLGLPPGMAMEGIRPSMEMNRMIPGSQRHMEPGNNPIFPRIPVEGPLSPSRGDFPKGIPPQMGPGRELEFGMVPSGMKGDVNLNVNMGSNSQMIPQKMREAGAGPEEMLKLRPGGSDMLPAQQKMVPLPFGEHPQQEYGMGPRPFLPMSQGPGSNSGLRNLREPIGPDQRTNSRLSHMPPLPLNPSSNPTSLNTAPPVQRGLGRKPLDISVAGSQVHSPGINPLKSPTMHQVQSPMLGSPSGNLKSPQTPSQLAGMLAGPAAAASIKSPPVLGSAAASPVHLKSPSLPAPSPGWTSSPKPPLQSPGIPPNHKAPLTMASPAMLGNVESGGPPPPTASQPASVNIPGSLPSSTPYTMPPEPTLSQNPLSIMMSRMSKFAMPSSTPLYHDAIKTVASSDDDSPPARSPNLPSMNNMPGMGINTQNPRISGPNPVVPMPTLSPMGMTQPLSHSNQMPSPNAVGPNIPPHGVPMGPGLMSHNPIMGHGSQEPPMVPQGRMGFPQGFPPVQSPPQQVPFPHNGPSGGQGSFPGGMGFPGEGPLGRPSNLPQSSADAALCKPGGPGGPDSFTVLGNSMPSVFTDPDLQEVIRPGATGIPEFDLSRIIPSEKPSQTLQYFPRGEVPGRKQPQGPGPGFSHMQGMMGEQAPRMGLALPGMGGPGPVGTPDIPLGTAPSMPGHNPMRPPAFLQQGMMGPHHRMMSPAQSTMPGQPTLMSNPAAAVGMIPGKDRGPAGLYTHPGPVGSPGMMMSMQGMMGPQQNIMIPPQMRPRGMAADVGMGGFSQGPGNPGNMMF
Sequence of beta-catenin-B-cell lymphoma 9 protein complex (P35222 2-781 limits assumed, stated change not applied): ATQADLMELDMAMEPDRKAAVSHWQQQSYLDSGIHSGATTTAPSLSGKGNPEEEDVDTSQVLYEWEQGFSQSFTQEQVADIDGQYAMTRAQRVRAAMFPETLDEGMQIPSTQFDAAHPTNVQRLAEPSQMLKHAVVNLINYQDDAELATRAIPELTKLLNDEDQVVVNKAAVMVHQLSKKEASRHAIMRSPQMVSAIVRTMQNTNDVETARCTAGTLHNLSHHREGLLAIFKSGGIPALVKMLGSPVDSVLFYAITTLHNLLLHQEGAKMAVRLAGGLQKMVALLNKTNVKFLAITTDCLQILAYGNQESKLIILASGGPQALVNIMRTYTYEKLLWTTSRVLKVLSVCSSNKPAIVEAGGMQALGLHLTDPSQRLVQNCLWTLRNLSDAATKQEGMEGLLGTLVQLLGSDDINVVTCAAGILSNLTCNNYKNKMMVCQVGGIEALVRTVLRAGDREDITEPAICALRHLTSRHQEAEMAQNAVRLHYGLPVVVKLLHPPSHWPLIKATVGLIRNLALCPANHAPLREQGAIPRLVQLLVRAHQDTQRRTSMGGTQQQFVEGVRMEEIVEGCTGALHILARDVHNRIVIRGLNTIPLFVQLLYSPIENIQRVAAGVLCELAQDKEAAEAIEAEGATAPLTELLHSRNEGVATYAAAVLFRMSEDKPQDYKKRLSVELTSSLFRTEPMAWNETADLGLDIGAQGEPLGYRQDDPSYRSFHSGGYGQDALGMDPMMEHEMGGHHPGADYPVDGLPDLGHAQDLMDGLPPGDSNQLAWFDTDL

Work on `CC(C)c1cc2c(c(O)c1O)[C@@]1(C(=O)O)CCCC(C)(C)[C@@H]1CC2` yielded a Ki of 5.3 µM.
